According to ChEMBL document CHEMBL1201862, “PubChem BioAssay data set” (2004):
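All cell lines were grown in 96-well plates and treated with compound for 48 hours. Abbreviation: GI50, concentration required for 50% inhibition of growth.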 Active and inactive are the calls of the source. Cut-off read from the data, not from the text of the source: active = GI50 up to about 1.1 µM and inactive = higher.

Assays:
Test in all cases: growth of human tumour cells (NCI), 48 h
SW-620 = test system: SW-620
K562 = test system: K562
DMS-114 = test system: DMS-114
TK-10 = test system: TK-10
HOP-62 = test system: HOP-62
MOLT-4 = test system: MOLT-4
SK-OV-3 = test system: SK-OV-3
LXFL 529 = test system: LXFL 529
ACHN = test system: ACHN
IGROV-1 = test system: IGROV-1
M14 = test system: M14
U-251 = test system: U-251
OVCAR-5 = test system: OVCAR-5
SNB-19 = test system: SNB-19
UO-31 = test system: UO-31
OVCAR-8 = test system: OVCAR-8
SK-MEL-28 = test system: SK-MEL-28
OVCAR-4 = test system: OVCAR-4
NCI-H522 = test system: NCI-H522
786-0 = test system: 786-0
SNB-75 = test system: SNB-75
DMS-273 = test system: DMS-273
SR = test system: SR
CCRF-CEM = test system: CCRF-CEM
HCC 2998 = test system: HCC 2998
LOX IMVI = test system: LOX IMVI
KM-20L2 = test system: KM-20L2
SF-539 = test system: SF-539
UACC-62 = test system: UACC-62
NCI-H23 = test system: NCI-H23
SN12C = test system: SN12C
SF-295 = test system: SF-295
XF498 = test system: XF498
EKVX = test system: EKVX
RXF 393 = test system: RXF 393
SNB-78 = test system: SNB-78
KM12 = test system: KM12
HCT-15 = test system: HCT-15
HL-60 = test system: HL-60
A549 = test system: A549
M19-MEL = test system: M19-MEL
HOP-92 = test system: HOP-92
COLO 205 = test system: COLO 205
SF-268 = test system: SF-268
SK-MEL-2 = test system: SK-MEL-2
NCI-H226 = test system: NCI-H226
Malme-3M = test system: Malme-3M
A498 = test system: A498
DLD-1 = test system: DLD-1
HCT-116 = test system: HCT-116
SK-MEL-5 = test system: SK-MEL-5
CAKI-1 = test system: CAKI-1
UACC-257 = test system: UACC-257
NCI-H460 = test system: NCI-H460
HT-29 = test system: HT-29
OVCAR-3 = test system: OVCAR-3
HOP-18 = test system: HOP-18
RPMI-8226 = test system: RPMI-8226

O=C(/C=C/c1ccccc1)NC1C=Nc2ccc([N+](=O)[O-])cc2NC1=O (stereo not drawn)
GI50 (SW-620): > 100 µM (inactive) | GI50 (K562): 27 µM (inactive) | GI50 (DMS-114): 15.8 µM (inactive) | GI50 (TK-10): > 100 µM (inactive) | GI50 (HOP-62): 84.3 µM (inactive) | GI50 (MOLT-4): 53.8 µM (inactive) | GI50 (SK-OV-3): > 100 µM (inactive) | GI50 (LXFL 529): 34.7 µM (inactive) | GI50 (ACHN): 26.2 µM (inactive) | GI50 (IGROV-1): > 100 µM (inactive) | GI50 (M14): 52.8 µM (inactive) | GI50 (U-251): > 100 µM (inactive) | GI50 (OVCAR-5): 71.9 µM (inactive) | GI50 (SNB-19): > 100 µM (inactive) | GI50 (UO-31): 48.9 µM (inactive) | GI50 (OVCAR-8): > 100 µM (inactive) | GI50 (SK-MEL-28): > 100 µM (inactive) | GI50 (OVCAR-4): > 100 µM (inactive) | GI50 (NCI-H522): 6.01 µM (inactive) | GI50 (786-0): > 100 µM (inactive) | GI50 (SNB-75): > 100 µM (inactive) | GI50 (DMS-273): 21.6 µM (inactive) | GI50 (SR): > 100 µM (inactive) | GI50 (CCRF-CEM): 17.4 µM (inactive) | GI50 (HCC 2998): 34.8 µM (inactive) | GI50 (LOX IMVI): 22.7 µM (inactive) | GI50 (KM-20L2): 23.3 µM (inactive) | GI50 (SF-539): > 100 µM (inactive) | GI50 (UACC-62): 44.1 µM (inactive) | GI50 (NCI-H23): 76.4 µM (inactive) | GI50 (SN12C): > 100 µM (inactive) | GI50 (SF-295): 30.3 µM (inactive) | GI50 (XF498): > 100 µM (inactive) | GI50 (EKVX): > 100 µM (inactive) | GI50 (RXF 393): > 100 µM (inactive) | GI50 (SNB-78): > 100 µM (inactive) | GI50 (KM12): 18.1 µM (inactive) | GI50 (HCT-15): 23.2 µM | GI50 (HL-60): 25.3 µM (inactive) | GI50 (A549): > 100 µM (inactive) | GI50 (M19-MEL): 38.4 µM (inactive) | GI50 (HOP-92): > 100 µM (inactive) | GI50 (COLO 205): 29 µM (inactive) | GI50 (SF-268): > 100 µM (inactive) | GI50 (SK-MEL-2): 25.7 µM (inactive) | GI50 (NCI-H226): > 100 µM (inactive) | GI50 (Malme-3M): > 100 µM (inactive) | GI50 (A498): > 100 µM (inactive) | GI50 (DLD-1): > 100 µM (inactive) | GI50 (HCT-116): 96.6 µM (inactive) | GI50 (SK-MEL-5): > 100 µM (inactive) | GI50 (CAKI-1): > 100 µM (inactive) | GI50 (UACC-257): > 100 µM (inactive) | GI50 (NCI-H460): > 100 µM (inactive) | GI50 (HT-29): 73.1 µM (inactive) | GI50 (OVCAR-3): 80.5 µM (inactive)

CCC1C(C(=O)Nc2ccccc2C)=C(C)NC(C)=C1c1ccccc1C (stereo not drawn)
GI50 (SW-620): > 43.1 µM (inactive) | GI50 (K562): 80 µM (inactive) | GI50 (TK-10): > 100 µM (inactive) | GI50 (HOP-62): > 100 µM (inactive) | GI50 (MOLT-4): > 100 µM (inactive) | GI50 (SK-OV-3): > 100 µM (inactive) | GI50 (LXFL 529): > 100 µM (inactive) | GI50 (ACHN): > 100 µM (inactive) | GI50 (IGROV-1): > 100 µM (inactive) | GI50 (M14): > 100 µM (inactive) | GI50 (HOP-18): > 60.8 µM (inactive) | GI50 (U-251): > 100 µM (inactive) | GI50 (OVCAR-5): > 100 µM (inactive) | GI50 (SNB-19): > 100 µM (inactive) | GI50 (UO-31): > 100 µM (inactive) | GI50 (OVCAR-8): > 100 µM (inactive) | GI50 (SK-MEL-28): > 100 µM (inactive) | GI50 (OVCAR-4): > 100 µM (inactive) | GI50 (NCI-H522): > 100 µM (inactive) | GI50 (786-0): > 100 µM (inactive) | GI50 (SNB-75): > 100 µM (inactive) | GI50 (RPMI-8226): 31.8 µM (inactive) | GI50 (DMS-273): > 49 µM (inactive) | GI50 (SR): 2.88 µM (inactive) | GI50 (CCRF-CEM): 55.1 µM (inactive) | GI50 (HCC 2998): > 100 µM (inactive) | GI50 (LOX IMVI): > 57.8 µM (inactive) | GI50 (KM-20L2): > 92.3 µM (inactive) | GI50 (SF-539): > 100 µM (inactive) | GI50 (UACC-62): > 100 µM (inactive) | GI50 (NCI-H23): > 100 µM (inactive) | GI50 (SN12C): > 100 µM (inactive) | GI50 (SF-295): > 100 µM (inactive) | GI50 (XF498): > 100 µM (inactive) | GI50 (EKVX): > 100 µM (inactive) | GI50 (RXF 393): > 100 µM (inactive) | GI50 (SNB-78): > 100 µM (inactive) | GI50 (KM12): > 100 µM (inactive) | GI50 (HCT-15): > 40.1 µM | GI50 (HL-60): 11.6 µM (inactive) | GI50 (A549): > 78 µM (inactive) | GI50 (M19-MEL): > 80.4 µM (inactive) | GI50 (HOP-92): > 100 µM (inactive) | GI50 (COLO 205): > 77.1 µM (inactive) | GI50 (SF-268): > 40.6 µM (inactive) | GI50 (SK-MEL-2): > 100 µM (inactive) | GI50 (NCI-H226): > 100 µM (inactive) | GI50 (Malme-3M): > 100 µM (inactive) | GI50 (A498): > 100 µM (inactive) | GI50 (DLD-1): > 39.7 µM (inactive) | GI50 (HCT-116): > 48.6 µM (inactive) | GI50 (SK-MEL-5): > 100 µM (inactive) | GI50 (CAKI-1): > 100 µM (inactive) | GI50 (UACC-257): > 100 µM (inactive) | GI50 (NCI-H460): > 44.1 µM (inactive) | GI50 (HT-29): > 100 µM (inactive) | GI50 (OVCAR-3): > 100 µM (inactive)
